Tests used:
COX-1 and COX-2 = conditions: cited from earlier work
Canine sEH = target: T1, Canine sEH (Canis lupus familiaris, UniProt A0A8I3NJL8); assay: sEH inhibitor screen of canine sEH; format: biochemical
T1 sequence (A0A8I3NJL8 1-556): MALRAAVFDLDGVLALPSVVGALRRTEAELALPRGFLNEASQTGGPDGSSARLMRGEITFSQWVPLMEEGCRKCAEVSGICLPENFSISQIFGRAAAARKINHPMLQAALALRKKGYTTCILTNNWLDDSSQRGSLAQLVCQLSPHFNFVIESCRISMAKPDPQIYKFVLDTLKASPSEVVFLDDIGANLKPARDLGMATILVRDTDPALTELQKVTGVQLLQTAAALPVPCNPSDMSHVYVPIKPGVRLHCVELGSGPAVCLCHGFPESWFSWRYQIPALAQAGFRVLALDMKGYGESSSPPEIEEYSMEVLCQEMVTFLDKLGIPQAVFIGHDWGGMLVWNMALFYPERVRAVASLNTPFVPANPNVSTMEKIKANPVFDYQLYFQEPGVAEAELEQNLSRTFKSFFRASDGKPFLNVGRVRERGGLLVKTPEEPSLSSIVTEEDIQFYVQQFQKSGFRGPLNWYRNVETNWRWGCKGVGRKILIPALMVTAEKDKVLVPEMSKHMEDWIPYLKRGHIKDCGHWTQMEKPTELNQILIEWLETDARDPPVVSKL

Sheep sEH = Sheep sEH (Ovis aries, UniProt A0ACI6PZ20); assay: sEH inhibitor screen of domestic animals, radioactive assay, liver cytosolic preparation; format: biochemical
Sequence of Sheep sEH (A0ACI6PZ20 entry or part of it): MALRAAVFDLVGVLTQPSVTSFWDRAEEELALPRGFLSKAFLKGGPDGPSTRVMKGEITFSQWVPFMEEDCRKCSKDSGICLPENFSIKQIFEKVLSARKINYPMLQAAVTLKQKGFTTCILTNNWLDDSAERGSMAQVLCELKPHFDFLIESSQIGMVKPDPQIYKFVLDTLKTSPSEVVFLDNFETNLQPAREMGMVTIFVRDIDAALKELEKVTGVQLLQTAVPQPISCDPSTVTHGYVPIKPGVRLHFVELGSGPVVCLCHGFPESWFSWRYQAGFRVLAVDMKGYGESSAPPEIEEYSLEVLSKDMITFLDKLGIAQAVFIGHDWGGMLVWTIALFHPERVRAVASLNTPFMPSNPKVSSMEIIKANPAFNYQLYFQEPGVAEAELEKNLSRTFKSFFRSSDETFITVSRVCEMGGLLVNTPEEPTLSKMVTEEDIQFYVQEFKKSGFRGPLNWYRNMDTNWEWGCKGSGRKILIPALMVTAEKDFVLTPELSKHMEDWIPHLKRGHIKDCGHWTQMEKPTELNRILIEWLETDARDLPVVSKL

sEH = target: T2, sEH (Homo sapiens, UniProt P34913); assay: Activity as inhibitor of sEH (general statements); format: biochemical
T2 sequence (P34913 1-555): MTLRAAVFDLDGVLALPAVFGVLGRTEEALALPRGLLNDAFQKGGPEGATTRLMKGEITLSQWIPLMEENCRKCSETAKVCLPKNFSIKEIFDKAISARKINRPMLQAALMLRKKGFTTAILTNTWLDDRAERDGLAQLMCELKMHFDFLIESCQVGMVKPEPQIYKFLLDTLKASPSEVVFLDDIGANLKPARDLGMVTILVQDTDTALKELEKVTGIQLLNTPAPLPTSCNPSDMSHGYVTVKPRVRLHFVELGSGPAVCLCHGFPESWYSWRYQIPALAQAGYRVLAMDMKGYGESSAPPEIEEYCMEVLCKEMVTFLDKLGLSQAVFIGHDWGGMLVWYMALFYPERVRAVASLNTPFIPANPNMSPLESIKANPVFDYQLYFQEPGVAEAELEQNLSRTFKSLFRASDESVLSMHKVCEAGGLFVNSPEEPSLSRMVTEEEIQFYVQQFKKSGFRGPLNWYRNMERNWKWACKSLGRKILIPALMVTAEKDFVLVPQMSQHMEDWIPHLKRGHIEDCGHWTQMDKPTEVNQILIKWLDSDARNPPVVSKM
Text: Derivatives of urea are transition state mimetics that form a preferred group of sEH inhibitors. […] Any particular urea derivative or other compound can be easily tested for its ability to inhibit sEH by standard assays, such as those discussed herein. The production and testing of urea and carbamate derivatives as sEH inhibitors is set forth in detail in, for example, Morisseau et al., Proc Natl Acad Sci (USA) 96:8849-8854 (1999).
One category of these inhibitors comprises inhibitors that mimic the substrate for the enzyme. The lipid alkoxides (e.g., the 9-methoxide of stearic acid) are an exemplar of this group of inhibitors.

[1] = Thoroughbred, horse, in vivo, iv, 0.1 mg/kg
[2] = horse, in vivo, iv, 0.1 mg/kg, 5 days
[3] = Plasma concentrations and pharmacokinetics in the laminitic horse; conditions: phenylbutazone 3-4 mg/kg BID PO, gabapentin 20 mg/kg BID PO

CC(=O)Oc1ccccc1C(=O)O [Aspirin]
COX-2 (IC50)/COX-1 (IC50) ratio (COX-1 and COX-2): 0.32

Cc1oc(=O)oc1COC(=O)c1ccc(O[C@H]2CC[C@H](NC(=O)Nc3ccc(OC(F)(F)F)cc3)CC2)cc1 [compound 2796, (5-methyl-2-oxo-1,3-dioxol-4-yl)methyl 4-((1r,4r)-4-(3-(4-(trifluoromethoxy)-phenyl)-ureido)-cyclohexyloxy)-benzoate]
IC50 (Canine sEH): 38 nM

CCS(=O)(=O)N1CCC(NC(=O)Nc2ccc(OC(F)(F)F)cc2)CC1 [compound 2213, 1-(1-ethylsulfonyl-piperidin-4-yl)-3-(4-trifluoromethoxy-phenyl)-urea]
IC50 (Sheep sEH): 33 nM

CS(=O)(=O)NC(=O)c1ccc(O[C@H]2CC[C@H](NC(=O)Nc3ccc(OC(F)(F)F)cc3)CC2)cc1 [compound 2728, N-(methylsulfonyl)-4-(trans-4-(3-(4-trifluoromethoxy-phenyl)-ureido)-cyclohexyloxy)-benzamide]
IC50 (Canine sEH): 100 nM

CCCCCCCCCCCCNC(=O)NC12CC3CC(CC(C3)C1)C2 [ADU, N-Adamantyl-N′-dodecyl urea]
activity on sEH (sEH): particularly high activity on sEH

O=C(Nc1ccc(OC(F)(F)F)cc1)NC1CCN(C(=O)C2CC2)CC1 [compound 2214, 1-(1-(cyclopropanecarbonyl)piperidin-4-yl)-3-(4-(trifluoromethoxy)phenyl)urea]
IC50 (Sheep sEH): 18 nM

O=C(Nc1ccc(OC(F)(F)F)cc1)Nc1ccc(Oc2ccc(C(=O)O)cc2)cc1F [compound 2807, 4-(3-fluoro-4-(3-(4-(trifluoromethoxy)-phenyl)-ureido)-phenoxy)-benzoic acid]
IC50 (Canine sEH): 14 nM

O=C(Nc1ccc(OC(F)(F)F)cc1)N[C@H]1CC[C@H](Oc2ccc(C(=O)O)cc2)CC1 [compound 1728, trans-4-{4-[3-(4-Trifluoromethoxy-phenyl)-ureido]-cyclohexyloxy}-benzoic acid]
daily plasma concentration, peak (did not reach) [1]: < 2.5 µM
daily plasma concentration, trough (fell below on one occasion in the first day) [1]: below 30 nM
adverse effects in clinical exams and blood work [2]: No adverse effects were observed

O=C(Nc1ccccc1F)N[C@H]1CC[C@H](Oc2ccc(C(=O)O)cc2)CC1 [compound 2736, 4-(trans-4-(3-(2-fluorophenyl)-ureido)-cyclohexyloxy)-benzoic acid]
IC50 (Canine sEH): 39 nM

COc1ccc2c(c1)c(CC(=O)O)c(C)n2C(=O)c1ccc(Cl)cc1 [indomethacin]
COX-2 (IC50)/COX-1 (IC50) ratio (COX-1 and COX-2): 33

NCC1(CC(=O)O)CCCCC1 [gabapentin]
highest measured plasma concentration [3]: 18 µM

O=C(Nc1ccc(OC(F)(F)F)cc1)N[C@H]1CC[C@H](Oc2ccc(-c3nnn[nH]3)cc2)CC1 [compound 2806, 1-(trans-4-(4-(1H-tetrazol-5-yl)-phenoxy)-cyclohexyl)-3-(4-(trifluoromethoxy)-phenyl)-urea]
IC50 (Canine sEH): < 1 nM

CS(=O)(=O)N1CCC(NC(=O)Nc2ccc(OC(F)(F)F)cc2)CC1 [compound 1709, 1-(1-methylsulfonyl-piperidin-4-yl)-3-(4-trifluoromethoxy-phenyl)-urea]
IC50 (Sheep sEH): 30 nM

O=C(Nc1ccc(OC(F)F)cc1)N[C@H]1CC[C@H](Oc2ccc(C(=O)O)cc2)CC1 [compound 2805, 4-(trans-4-(3-(4-(difluoromethoxy)-phenyl)-ureido)-cyclohexyloxy)-benzoic acid]
IC50 (Canine sEH): 19 nM

O=C(Nc1ccc(Oc2ccc(C(=O)O)cc2)cc1)Nc1ccc(OC(F)(F)F)cc1 [compound 2803, 4-(4-(3-(4-(trifluoromethoxy)-phenyl)-ureido)-phenoxy)-benzoic acid]
IC50 (Canine sEH): 42 nM

Reference: patent publication US20200000755A1, “TREATMENT OF INFLAMMATORY DISORDERS IN NON-HUMAN MAMMALS” (THE REGENTS OF THE UNIVERSITY OF CALIFORNIA, priority 2012, published 2020)
